# Assay results taken from ChEMBL document CHEMBL3045984, “Resistance to HPPD-inhibiting herbicides in a population of waterhemp (Amaranthus tuberculatus) from Illinois, United States” (2011).
# How the values were obtained:
# Assay type in all cases: functional
# [1] = test system: Amaranthus tuberculatus; assay: Herbicidal activity against Amaranthus tuberculatus biotype ACR assessed as visual injury at 105 g/ha applied as spray after 21 days under green house conditions relative to untreated control
# [2] = test system: Amaranthus tuberculatus; assay: Herbicidal activity against Amaranthus tuberculatus biotype MCR 16 assessed as visual injury at 105 g/ha applied as spray after 14 days under green house conditions relative to untreated control
# [3] = test system: Amaranthus tuberculatus; assay: Herbicidal activity against Amaranthus tuberculatus biotype MCR 15 assessed as visual injury at 105 g/ha applied as spray after 14 days under green house conditions relative to untreated control
# [4] = test system: Amaranthus tuberculatus; assay: Herbicidal activity against Amaranthus tuberculatus biotype MCR 12 assessed as visual injury at 105 g/ha applied as spray after 14 days under green house conditions relative to untreated control
# [5] = test system: Amaranthus tuberculatus; assay: Herbicidal activity against Amaranthus tuberculatus biotype MCR 12 assessed as visual injury at 105 g/ha applied as spray after 7 days under green house conditions relative to untreated control
# [6] = test system: Amaranthus tuberculatus; assay: Herbicidal activity against Amaranthus tuberculatus biotype WCS assessed as visual injury at 105 g/ha applied as spray after 21 days under green house conditions relative to untreated control
# [7] = test system: Amaranthus tuberculatus; assay: Herbicidal activity against Amaranthus tuberculatus biotype ACR assessed as visual injury at 105 g/ha applied as spray after 14 days under green house conditions relative to untreated control
# [8] = test system: Amaranthus tuberculatus; assay: Herbicidal activity against Amaranthus tuberculatus biotype WCS assessed as visual injury at 105 g/ha applied as spray after 14 days under green house conditions relative to untreated control
# [9] = test system: Amaranthus tuberculatus; assay: Herbicidal activity against Amaranthus tuberculatus biotype MCR 16 assessed as visual injury at 105 g/ha applied as spray after 7 days under green house conditions relative to untreated control
# [10] = test system: Amaranthus tuberculatus; assay: Herbicidal activity against Amaranthus tuberculatus biotype MCR 15 assessed as visual injury at 105 g/ha applied as spray after 7 days under green house conditions relative to untreated control
# [11] = test system: Amaranthus tuberculatus; assay: Herbicidal activity against Amaranthus tuberculatus biotype MCR 16 assessed as visual injury at 105 g/ha applied as spray after 21 days under green house conditions relative to untreated control
# [12] = test system: Amaranthus tuberculatus; assay: Herbicidal activity against Amaranthus tuberculatus biotype MCR 15 assessed as visual injury at 105 g/ha applied as spray after 21 days under green house conditions relative to untreated control
# [13] = test system: Amaranthus tuberculatus; assay: Herbicidal activity against Amaranthus tuberculatus biotype MCR 12 assessed as visual injury at 105 g/ha applied as spray after 21 days under green house conditions relative to untreated control
# [14] = test system: Amaranthus tuberculatus; assay: Herbicidal activity against Amaranthus tuberculatus biotype ACR assessed as visual injury at 105 g/ha applied as spray after 7 days under green house conditions relative to untreated control
# [15] = test system: Amaranthus tuberculatus; assay: Herbicidal activity against Amaranthus tuberculatus biotype WCS assessed as visual injury at 105 g/ha after 7 days applied as spray under green house conditions relative to untreated control
# [16] = test system: Amaranthus tuberculatus; assay: Herbicidal activity against Amaranthus tuberculatus biotype MCR assessed as mortality at 315 g/ha applied as spray after 21 days under green house conditions relative to untreated control; details: 504 h
# [17] = test system: Amaranthus tuberculatus; assay: Herbicidal activity against Amaranthus tuberculatus biotype MCR assessed as mortality at 105 g/ha applied as spray after 21 days under green house conditions relative to untreated control; details: 504 h
# [18] = test system: Amaranthus tuberculatus; assay: Herbicidal activity against Amaranthus tuberculatus biotype ACR assessed as visual injury at 315 g/ha applied as spray after 21 days under green house conditions relative to untreated control
# [19] = test system: Amaranthus tuberculatus; assay: Herbicidal activity against Amaranthus tuberculatus biotype WCS assessed as visual injury at 315 g/ha applied as spray after 21 days under green house conditions relative to untreated control
# [20] = test system: Amaranthus tuberculatus; assay: Herbicidal activity against Amaranthus tuberculatus biotype MCR assessed as decrease in shoot dry weight at 105 g/ha applied as spray during post-emergence after 21 days under green house conditions relative to untreated control; design: scale not given: the % may be the effect or the level left
# [21] = test system: Amaranthus tuberculatus; assay: Herbicidal activity against Amaranthus tuberculatus biotype ACR assessed as decrease in shoot dry weight at 105 g/ha applied as spray during post-emergence after 21 days under green house conditions relative to untreated control; design: scale not given: the % may be the effect or the level left
# [22] = test system: Amaranthus tuberculatus; assay: Herbicidal activity against Amaranthus tuberculatus biotype WCS assessed as decrease in shoot dry weight at 105 g/ha applied as spray during post-emergence after 21 days under green house conditions relative to untreated control; design: scale not given: the % may be the effect or the level left
# [23] = test system: Amaranthus tuberculatus; assay: Herbicidal activity against Amaranthus tuberculatus biotype WCS assessed as decrease in shoot dry weight applied as spray after 21 days under green house conditions
# [24] = test system: Amaranthus tuberculatus; assay: Herbicidal activity against Amaranthus tuberculatus biotype ACR assessed as decrease in shoot dry weight applied as spray after 21 days under green house conditions
# [25] = test system: Amaranthus tuberculatus; assay: Herbicidal activity against Amaranthus tuberculatus biotype MCR assessed as decrease in shoot dry weight applied as spray after 21 days under green house conditions
structure (smiles),measurement,setting,value
CS(=O)(=O)c1ccc(C(=O)C2C(=O)CCCC2=O)c([N+](=O)[O-])c1 [MESOTRIONE],Activity,[1],88%
same,Activity,[2],45%
same,Activity,[3],36%
same,Activity,[4],24%
same,Activity,[5],40%
same,Activity,[6],100%
same,Activity,[7],90%
same,Activity,[8],96%
same,Activity,[9],48%
same,Activity,[10],37%
same,Activity,[11],27%
same,Activity,[12],26%
same,Activity,[13],13%
same,Activity,[14],63%
same,Activity,[15],85%
same,mortality at 315 g/ha,[16],33%
same,mortality at 105 g/ha,[17],0%
same,Activity,[18],100%
same,Activity,[19],100%
same,Activity,[20],60%
same,Activity,[21],>90%
same,Activity,[22],>90%
same,GR50,[23],1.4 g/ha
same,GR50,[24],4.9 g/ha
same,GR50,[25],48.5 g/ha
